The text below walks through data of article PMC10077475, “DG9-conjugated morpholino rescues phenotype in SMA mice by reaching the CNS via a subcutaneous administration” (JCI Insight, 2023).

In series [1] the test system is severe SMA mouse model (Taiwanese model). As to the kind of experiment: Survival of severe SMA mice after a single subcutaneous injection at PD0. The series is classed as in vivo. As to conditions: until humane endpoint. How it is done:
To examine whether DG9 peptide can increase the efficacy of PMO, we conjugated it to an 18-mer PMO with a sequence identical to nusinersen. The DG9-PMO, unconjugated PMO, and MOE were injected into SMA model mice [Cg-Tg(SMN2)2HungSmn1^tm1Hung/J; abbreviated as Smn^–/– SMN2^Tg/Tg; commonly called the Taiwanese model]. We also used an arginine-rich peptide (R6G) that is currently being explored in clinical trials for Duchenne muscular dystrophy (DMD) and used in preclinical studies for Hutchinson-Gilford progeria syndrome ([37], [38]). The benchmark control peptide R6G was conjugated to the same PMO sequence used in our study (R6G-PMO). […] We subcutaneously injected mice with the AOs or saline (nontreated, NT) administered at postnatal day 0 (PD0) at 2 doses: 40 mg/kg or 80 mg/kg. In our preliminary experiments, we also tested lower doses of 10 and 20 mg/kg (data not shown). […] The survival was recorded until a humane endpoint was reached. For the 40 mg/kg doses, the median survival was 12 days for unconjugated PMO, 15.5 days for MOE, and 17 days for R6G-PMO, which was increased to 58 days for DG9-PMO treatment (Figure 1A and Supplemental Figure 1A; supplemental material available online with this article; https://doi.org/10.1172/jci.insight.160516DS1). The median survival increased to 57 days for unconjugated PMO, 64 days for MOE, and 121 days for DG9-PMO at the higher dose of 80 mg/kg (Figure 1A). […] In spite of no statistical difference between DG9-PMO and MOE groups, the median survival of DG9-PMO still was higher than MOE, as only 1 mouse was alive until PD200 following a 40 mg/kg injection of MOE.
SMA-transgenic mice [JAX stock 005058 FVB.Cg-Tg(SMN2)2HungSmn1^tm1Hung/J] (Smn^–/–; SMN2^Tg/Tg), also known as Taiwanese mice, were purchased from Jackson Laboratory. Heterozygous mice for Smn1 (Smn1^+/–; SMN2^–/–) generated by us were crossed with mice homozygous for Smn1 Smn^–/–; SMN2^Tg/Tg generated by us to obtain the SMA mice (Smn^–/–; SMN2^Tg/–) or the heterozygous healthy control (Smn1^+/–; SMN2^Tg/–). The SMA mice display a severe overt phenotype similar to patients with SMA type I. The mice were genotyped using a PCR assay on genomic DNA isolated from tail biopsies using the Phire Tissue Direct PCR Kit (Thermo Fisher Scientific) as per the manufacturer’s instructions. The DNA was amplified using the primers described in Supplemental Table 1 using the condition Mouse Smn: 98°C/5 minutes → 98°C/5 s 58°C/10 s 72°C/10 s × 35 cycles → 72°C/1 minute.
(§1) Injections were carried out using a 30-gauge Hamilton syringe. SMA mice identified following genotyping were randomly assigned to a treatment group. The researcher injecting mice was blinded to the treatment. SMA neonates were subcutaneously injected with 40 or 80 mg/kg of AOs at PD0, while NT and heterozygous control mice were injected with saline (n = 10–49) per group. Tissues including the quadriceps muscle, liver, kidney, spleen, diaphragm, intercostal muscle, heart, brain, and spinal cord were collected and snap-frozen in dry ice– cooled isopentane, then subsequently stored at –80°C.

In series [2] the test system is severe SMA mouse model. As to the kind of experiment: Body weight of SMA mice at PD7. The series is classed as in vivo. How it is done:
as §1

Series [3] in a line: Toxicology: serum markers, urinary KIM-1, liver and kidney histology. The series is classed as in vivo, mouse. Here is the method:
To further elucidate the possibility of long-term toxicity, we collected serum from the Hets and AO-treated mice at PD30–PD35. A toxicological evaluation was performed on the levels of alkaline phosphatase (ALP), alanine transaminase (ALT), aspartate aminotransferase (AST), creatine kinase (CK), creatinine, total bilirubin, total protein, albumin, globulin, and gamma-glutamyl transferase (GGT). […] We also performed a qualitative histological analysis of the liver and kidney and found no signs of observable toxicity (Supplemental Figure 9D). We also analyzed levels of urinary kidney injury marker-1 (KIM-1) following DG9-PMO treatment at both 40 and 80 mg/kg.
Blood was collected from the mice around PD30–PD40 (n = 4–10 per group) during the dissection procedure. The blood was left at RT for 30 minutes and centrifuged at 2,000 rcf. The resulting supernatant (serum) was transferred to a new 1.5 mL tube and stored at –20 °C. The serum samples were analyzed by IDEXX BioAnalytics. The evaluation was performed on a standard set of toxicity markers: glucose, total bilirubin, blood urea nitrogen, CK, creatinine, ALP, ALT, AST, GGT, globulin, albumin, and total protein. Urinary KIM-1 analysis was performed from urine collected from mice at PD30. The collected urine was centrifuged at 2,000 rcf at 4°C. […]

Series [4] concerns severe SMA mouse model. Put plainly: Forelimb grip strength. As to conditions: 40 mg/kg s.c. at PD0, normalized to body weight. The series is classed as in vivo. Here is the method: This improvement was further bolstered by the forelimb grip strength assessment at PD30 in the DG9-PMO–treated mice (Figure 1E and Supplemental Figure 2A). […] We evaluated the relationship between the forelimb data and the sex at PD30. […] We also performed a rotarod test PD30 for the 40 mg/kg groups to assess their overall muscle coordination and balance ([41]). We observed that although the unconjugated PMO–treated mice had reduced forelimb grip strength, they were able to balance themselves on the rotating beam similar to DG9-PMO–treated mice owing to their smaller size and weight (Supplemental Figure 2C). Since we had only 2 MOE mice in this experiment, they were not included in the statistics. Taken together, based on conclusive findings from these functional tests, systemic injection of DG9-PMO improves motor function and muscle strength in both neonatal and adult SMA mice.
This assay was conducted as described in Treat NMD protocol SMA_M.2.1.002 ([73]). In short, the mouse is placed on the wire mesh of an automated grip strength meter (Columbus Instruments) such that only the front paws are allowed to grip the metal grid. The mouse is steadily pulled with the help of its tail, such that it lets go of the grid completely. PD30 and PD60 mice were used. Each mouse underwent 3 trials.

Setting [5] is: single subcutaneous injection at PD0, 40 mg/kg.
[6] abbreviates: single subcutaneous injection at PD0, 80 mg/kg.

As for `CC(=O)N[C@@H](Cc1ccc(O)cc1)C(=O)N[C@@H](C)C(=O)N[C@H](CCCNC(=N)N)C(=O)N[C@H](C(=O)N[C@@H](CCCNC(=N)N)C(=O)N[C@@H](CCCNC(=N)N)C(=O)N[C@H](CCCNC(=N)N)C(=O)NCC(=O)N1CCC[C@H]1C(=O)N[C@@H](CCCNC(=N)N)C(=O)NCC(=O)N[C@@H](Cc1ccc(O)cc1)C(=O)N[C@@H](C)C(=O)N[C@H](CCCNC(=N)N)C(=O)N[C@H](C(=O)N[C@@H](CCCNC(=N)N)C(=O)N[C@@H](CCCNC(=N)N)C(=O)N[C@H](CCCNC(=N)N)C(=O)NCC(=O)N1CCC[C@H]1C(=O)N[C@@H](CCCNC(=N)N)C(=O)N[C@H](CCCNC(=N)N)C(=O)N1C[C@@H](COP(=O)(N(C)C)N2C[C@@H](COP(=O)(N(C)C)N3C[C@@H](COP(=O)(N(C)C)N4C[C@@H](COP(=O)(N(C)C)N5C[C@@H](COP(=O)(N(C)C)N6C[C@@H](COP(=O)(N(C)C)N7C[C@@H](COP(=O)(N(C)C)N8C[C@@H](COP(=O)(N(C)C)N9C[C@@H](COP(=O)(N(C)C)N%10C[C@@H](COP(=O)(N(C)C)N%11C[C@@H](COP(=O)(N(C)C)N%12C[C@@H](COP(=O)(N(C)C)N%13C[C@@H](COP(=O)(N(C)C)N%14C[C@@H](COP(=O)(N(C)C)N%15C[C@@H](COP(=O)(N(C)C)N%16C[C@@H](COP(=O)(N(C)C)N%17C[C@@H](COP(=O)(N(C)C)N%18C[C@@H](COP(=O)(N(C)C)N%19CCC(C(N)=O)CC%19)O[C@@H](n%19cc(C)c(=O)[nH]c%19=O)C%18)O[C@@H](n%18ccc(N)nc%18=O)C%17)O[C@@H](n%17cnc%18c(N)ncnc%18%17)C%16)O[C@@H](n%16ccc(N)nc%16=O)C%15)O[C@@H](n%15cc(C)c(=O)[nH]c%15=O)C%14)O[C@@H](n%14cc(C)c(=O)[nH]c%14=O)C%13)O[C@@H](n%13cc(C)c(=O)[nH]c%13=O)C%12)O[C@@H](n%12ccc(N)nc%12=O)C%11)O[C@@H](n%11cnc%12c(N)ncnc%12%11)C%10)O[C@@H](n%10cc(C)c(=O)[nH]c%10=O)C9)O[C@@H](n9cnc%10c(N)ncnc%109)C8)O[C@@H](n8cnc9c(N)ncnc98)C7)O[C@@H](n7cc(C)c(=O)[nH]c7=O)C6)O[C@@H](n6cnc7c(=O)[nH]c(N)nc76)C5)O[C@@H](n5ccc(N)nc5=O)C4)O[C@@H](n4cc(C)c(=O)[nH]c4=O)C3)O[C@@H](n3cnc4c(=O)[nH]c(N)nc43)C2)O[C@@H](n2cnc3c(=O)[nH]c(N)nc32)C1)C(C)C)C(C)C` (stereo partly drawn) [DG9-PMO], the median survival in series [1] (setting [5]) amounted to 58 days; in series [1] (setting [6]) it was 121 days. The “body weight at PD7 versus R6G-PMO” value in the series on severe SMA mouse model [2] (40 mg/kg s.c. at PD0) is on record as “weighed significantly more than R6G-PMO–treated neonates”. The “body weight at PD7” value with severe SMA mouse model [2] (both doses (40 and 80 mg/kg) s.c. at PD0) was “significantly heavier than the NT and unconjugated PMO–treated littermates”. For the same compound, the “urinary kidney injury marker-1 (KIM-1) compared to the Hets” value in series [3] (40 and 80 mg/kg, urine at PD30, sandwich ELISA) was “no apparent increase”. Moreover, in series [3] (as high as 80 mg/kg dose), the “toxicity on the liver and kidney” value is “no apparent toxicity”. In the series on severe SMA mouse model [4], the “forelimb grip force at PD30” value is “forelimb grip force comparable to the Hets and significantly higher than the unconjugated PMO– and MOE-treated mice”.
Turning to “unconjugated PMO: PMO targeting ISS-N1 intron 7 (5′ TCACTTTCATAATGCTGG 3′), purchased from Gene Tools LLC (all phosphorodiamidate morpholino (PMO)) [reference compound]”, the figures for the median survival in series [1] (setting [5]) and in series [1] (setting [6]) were 12 days and 57 days, respectively.
